One data set has as its system PC cells. Briefly: Oxygen consumption rate (Seahorse). In kind it is cell-based, human. The method, then: Cell bioenergetic assays. Oxygen consumption rates (OCR) and extracellular acidification rates (ECAR) were measured using the Seahorse XFp Extracellular Flux Analyzer (Seahorse Bioscience) according to the manufacturer's instructions. For OCR experiments, cells were cultured in 4 mM glutamine, 5% FBS, and the indicated glucose levels for 24-36 hours. Mitochondrial membrane potential was measured with TMRE staining (Invitrogen, T669) according to the manufacturer's instructions. […] NADPH (abcam, ab65349), GSH/GSSG ratio (Promega, V6611), and ATP (abcam, 83355) measurements were performed according to the manufacturer's instructions. All readouts were normalized to cell number.

Data set [1] has as its target T1, IDH1 protein in MiaPaCa-2 PC cells (Homo sapiens, UniProt O75874).
T1 construct: endogenous in cells; host or cells: MiaPaCa-2 pancreatic cancer cells
Briefly: Cellular thermal shift assay. It is filed as cell-based. Particulars: 1 μM. The method, then: Cellular Thermal Shift assay. Thermal shift experiments were performed as previously described (72). Briefly, cells were cultured in media containing the indicated experimental concentrations of MgSO4 under standard conditions (25 mM glucose, 4 mM glutamine and 10% FBS) for 24 hours. […] Cells were then trypsinized, washed with PBS, suspended in PBS (containing protease inhibitors), lysed through three freeze-thaw cycles at liquid nitrogen−37° C., and then heated at the indicated temperatures for three minutes. Preparations were spun down at 13,000 rpm for 10 min at 4° C. to remove denatured proteins, and supernatants were loaded on a Western blot gel. Western blots were performed as described.

The subject of the next data set is Human PC cells. Briefly: Clonogenic growth of human PC cells. Particulars: low Mg2+ and glucose. It is filed as cell-based. The method, then: (§1) Clonogenic assay. 1000-2000 cells per well were plated in six-well plates. Media was not changed during experiments unless indicated. […] Upon completion of the experiments, colonies were fixed in a reagent containing 80% methanol and stained with 0.5% crystal violet. To determine relative growth, dye was extracted from stained colonies with 10% acetic acid and the associated absorbance measured at 600 nm using a Microplate Reader (GloMax Explorer system, Promega).

The test system of data set [2] is wtIDH1 pancreatic cancer (MiaPaCa-2, PANC-1, PDX TM01212). Put plainly: Human PC xenografts and PDX in nude mice.
Protocol: In vivo studies. […] Mice were maintained under pathogen-free conditions in the animal facility. No additional food or nutrient-contained bedding provided to the animals during these studies. […] Mice with subcutaneous PDX were purchased from The Jackson Laboratory (#TM01212). […] For flank xenograft experiments, 1×10^6 cells were suspended in 200 μL of a PBS:matrigel solution (1:1) and injected subcutaneously into the right flank of mice. […] Equal number of male and female mice were used. […] For the indicated experiments, hyperglycemia was induced by allowing mice to drink high glucose content water (30% dextrose; abbreviated as D30 water) starting two weeks before cancer cell implantation. […] An equal volume of vehicle was administrated to control mice. NAC water (1.2 g/L) was refreshed twice weekly for the indicated experiments. A high magnesium diet, magnesium sulfate water (MgSO4, 1.5 g/L) was used for the indicated experiments. For all flank xenograft experiments, tumor volumes were measured twice per week using a caliper (volume=length×width^2/2). Upon termination of animal experiments, mice were euthanized using carbon dioxide inhalation followed by cervical dislocation, and tumors were harvested. Body weights were measured once weekly for the indicated time.
In a further data set the test system is HCT116 cells. Put plainly: Clonogenic growth of colon cancer cells. In kind it is cell-based, human. Particulars: low Mg2+ and glucose. The method, then: as §1

Consider one compound from patent publication US20250092035A1, “ISOCITRATE DEHYDROGENASE 1 INHIBITORS AND METHODS OF USE THEREOF” (THE WISTAR INSTITUTE OF ANATOMY AND BIOLOGY, priority 2022, published 2025).

T1 sequence (O75874 2-414 limits assumed): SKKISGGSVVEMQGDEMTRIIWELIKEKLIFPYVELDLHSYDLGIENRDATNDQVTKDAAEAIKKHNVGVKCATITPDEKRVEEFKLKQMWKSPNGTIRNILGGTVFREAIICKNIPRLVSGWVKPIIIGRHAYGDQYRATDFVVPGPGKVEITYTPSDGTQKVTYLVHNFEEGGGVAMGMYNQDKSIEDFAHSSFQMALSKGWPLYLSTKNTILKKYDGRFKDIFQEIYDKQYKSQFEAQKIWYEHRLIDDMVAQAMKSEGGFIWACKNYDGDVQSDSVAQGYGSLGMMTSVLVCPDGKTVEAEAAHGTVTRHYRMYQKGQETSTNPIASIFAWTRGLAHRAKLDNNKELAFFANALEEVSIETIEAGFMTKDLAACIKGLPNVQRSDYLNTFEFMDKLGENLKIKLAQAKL

As to `N#Cc1ccnc(N2C(=O)CC[C@H]2C(=O)N(c2cncc(F)c2)[C@H](C(=O)NC2CC(F)(F)C2)c2ccccc2Cl)c1` [AG-120, ivosidenib], the oxygen consumption result was “severely impaired oxygen consumption” in the data set with PC cells (low Mg2+ and glucose); “no effect on oxygen consumption” with PC cells (standard Mg2+ and low glucose). In addition, the “thermal stabilization of IDH1” value in data set [1] (higher Mg2+ levels) is “no effect”; in data set [1] (low Mg2+ concentrations), “stabilized the protein”. In addition, in the data set on Human PC cells, the cell survival entry is “markedly impaired survival”. In data set [2] (150 mg/kg orally twice per day, PDX 75 mg/kg IP once daily), the anti-tumor efficacy result is recorded as “highly effective as a single agent”. Moreover, the tolerability result in data set [2] (body weights, nude mice) is recorded as “tolerated the treatment very well”. For the same compound, in the data set on HCT116 cells, the response in culture result was “responded to the drug”.
